Biological target: T1, Receptor-interacting serine/threonine-protein kinase 1 (Homo sapiens, UniProt Q13546)
T1 sequence (Q13546 whole entry): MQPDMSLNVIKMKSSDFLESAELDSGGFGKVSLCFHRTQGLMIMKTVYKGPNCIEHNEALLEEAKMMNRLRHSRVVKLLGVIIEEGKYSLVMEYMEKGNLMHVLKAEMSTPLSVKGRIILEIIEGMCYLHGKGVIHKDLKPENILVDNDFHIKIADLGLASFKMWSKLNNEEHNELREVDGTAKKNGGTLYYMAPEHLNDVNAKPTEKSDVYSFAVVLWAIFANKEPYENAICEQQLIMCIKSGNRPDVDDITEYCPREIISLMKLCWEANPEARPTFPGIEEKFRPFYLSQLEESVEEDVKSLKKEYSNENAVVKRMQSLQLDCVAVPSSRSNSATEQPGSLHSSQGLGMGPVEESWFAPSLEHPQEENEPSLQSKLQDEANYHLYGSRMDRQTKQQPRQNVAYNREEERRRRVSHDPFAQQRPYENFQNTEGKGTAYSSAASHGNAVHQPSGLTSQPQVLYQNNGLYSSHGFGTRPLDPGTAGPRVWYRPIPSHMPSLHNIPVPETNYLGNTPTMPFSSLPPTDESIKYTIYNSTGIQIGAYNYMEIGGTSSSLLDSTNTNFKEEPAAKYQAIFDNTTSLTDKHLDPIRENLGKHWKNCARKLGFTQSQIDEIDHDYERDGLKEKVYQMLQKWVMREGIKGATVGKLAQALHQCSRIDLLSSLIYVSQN
Experiment: RIPK1 Kinase Activity Assay
Protocol: ADP-Glo Kinase kit can be used to measure ADP level in kinase activity assay so as to distinguish the inhibitory effects of different compounds on RIPK1 kinase activity. The ADP-Glo assay was usually divided into three steps. Firstly, the kinase converted ATP to ADP and phosphorylated the substrate at the same time; secondly, ATP digestion reagent was added to degrade all ATP in the reaction system; finally, a detection reagent was added to reduce ADP to ATP, and energy from ATP was transferred to […] which thus emitting a chemical luminescence that can be detected. Assay procedure can refer to manufacture's technical manual.(2) Reagent Preparation:1.33× kinase buffer: 5× kinase buffer stock (250 mM of NaCl, 150 mM of MgCl2, 2.5 mg/ml BSA (bovine serum albumin), 0.1% CHAPS (3-[(3-cholamidopropyl)-dimethyl-ammonio]-1-propane sulfonate), and 5 mM of dithiothreitol) was diluted with water to 1.33× kinase buffer;RIPK1 enzyme solution: the kinase was dissolved in 1.33× kinase buffer to make 40 nM as the final working concentration;ATP solution: 10 mM ATP stock solution in water was dissolved in 1.33× kinase buffer to make 10 μM as the final working concentration;4× compound preparation: the compound was diluted in a 3-fold gradient, and finally 4% DMSO aqueous solution containing different concentrations of the compound was obtained. […]

- IC50: 18 nM
Compound: CC(C)n1cncc(-c2ccc(C3(NC(=O)c4nnc(Cc5ccccc5)[nH]4)CC3)cc2)c1=O [US20240002388, Compound 14]
